Laboratory results published in patent US20090123581A1, “COLLAGEN CROSS-LINKING AGENTS ON DENTAL RESTORATIVE TREATMENT AND PREVENTIVE DENTISTRY” (THE BOARD OF TRUSTEES OF THE UNIVERSITY OF ILLINOIS, priority 2006, published 2009).
Values joined by “and” are separate entries in the source; they are usually repeats but may differ in a detail not shown here. Equal values may be shown once.

What was measured:
[1] = Ultimate tensile strength (UTS) of undemineralized (mineralized) dentin after cross-linker treatment (Example 1); set-up: species or system human; details: 0.625% GE or 5% GD; for Ultimate tensile strength, mean: pH 7.4
From the text: Fixation Processes: Ten sound freshly extracted human molars were used in this study. The teeth were thawed, cleaned of adhering soft tissues, and the occlusal surfaces were ground flat with #320 grit Silicon Carbide paper under running water to remove part of the enamel. Flattening of the occlusal surface by removal of the cusps enables accurate sectioning of samples in beam shape. Teeth were sectioned into 0.5±0.1 by 0.5±0.1 mm thick beams (n=20 beams per tooth) with a slow speed diamond wafering blade (Buehler-Series 15LC Diamond, Lake Bluff, Ill., USA) under constant water coolant (FIG. 1A).
The slabs were randomly divided into two groups: 1) undemineralized dentin and 2) demineralized dentin (FIG. 1A). In Group 2, dentin beams were immersed in 10% phosphoric acid solution (Fisher Scientific, New Jersey, N.J.) for a period of 5 hours. X-rays were taken from the specimens to verify complete tissue demineralization. Specimens were thoroughly rinsed with distilled water for 10 minutes to remove any residue of the phosphoric acid.
Specimens from groups 1 and 2 were subdivided according to the dentin treatment (FIG. 1B). In Treatment A, specimens were immersed in PBS solution (pH: 7.4) as a control. In Treatment B, specimens were immersed in 0.5% Proanthocyanidin (MegaNatural—Polyphenolics Ind.) PBS solution (PA) at a pH of 7.4. In Treatment C, specimens were immersed in 0.625% Genipin (Wako Pure Chemical Ind.) PBS solution (GE) at a pH of 7.4. In Treatment D, specimens were immersed in 5% glutaraldehyde solution (GD) (Fisher Scientific, New Jersey, N.J.) at a pH of 7.4. Specimens were kept in their respective solutions for 4 and 40 hours at room temperature. After the incubation periods, specimens were thoroughly rinsed with distilled and deionized water to remove any remains of cross-linking agents and buffer.
UTS testing: For UTS evaluation, the specimens were glued with a cyanoacrylate adhesive (Zapit—Dental Ventures of America Inc., Corona, Calif.) to a Ciucchi's jig, which was mounted on a universal testing machine (EZ Test, Shimazu Co., Kyoto, Japan) and subjected to microtensile testing at a crosshead speed of 1 mm/min (FIG. 1C). Means and standard deviations were calculated and expressed in microtensile bond strengths (MPa). Statistical analysis was performed using a two-way ANOVA and Fisher's PLSD tests (p<0.05).

[2] = Modulus of elasticity of demineralized dentin, 3-point bend method (Example 3); set-up: species or system human; details: for modulus of elasticity, pooled data: pooled over all times (baseline to 4 h)
From the text: Twelve sound extracted human molars were used. The teeth were thawed, cleaned of adhering soft tissues, and the occlusal surfaces were ground flat with #320 grit silicon carbide abrasive paper under running water to remove part of the enamel (Buehler, Lake Bluff, Ill.). Flattening of the occlusal surface by cusp removal enables more accurate sectioning of samples. The root portion was sectioned 1 mm below the CEJ and discarded. Teeth were sectioned into 0.5±0.1 mm thick beams (n=5 beams per tooth) in the mesio-buccal direction with a slow speed diamond wafering blade (Buehler-Series 15LC Diamond) under constant water irrigation (FIG. 1A). The sections were further trimmed using a cylindrical diamond bur (#557D, Brasseler, Savannah, Ga.) in a high speed handpiece, to a final rectangular dimension of 0.5 mm thickness×1.7 mm width×7.0 mm length. A dimple was made at one end of the surfaces to allow for repeated measurements to be performed on the same surface (FIG. 1A).
Specimens were immersed in 10% phosphoric acid solution (LabChem Inc, Pittsburgh, Pa.) for a period of 5 hours and thoroughly rinsed with distilled water for 10 minutes. X-rays were taken of the specimens to verify complete tissue demineralization. Demineralized specimens were randomly divided into the following groups according to dentin treatment (FIG. 1B): 2.5% glutaraldehyde (Fisher Biotech, Fair Lawn, N.J.) in PBS (pH: 7.4); 5% glutaraldehyde in PBS (pH: 7.4); 25% glutaraldehyde in PBS (pH: 7.4); 0.65% grape seed extract (Mega-Natural—Polyphenolics Ind., Madera, Calif.) in PBS (pH: 7.4); and 6.5% grape seed extract in PBS solution (pH: 7.4). Specimens were immersed in water for baseline measurements and then in their respective solutions for 10 min, 30 min, 1 hour, 2 hour and 4 hours of cumulative exposure (FIG. 1C).
The 3-point bend method was selected for evaluation of the modulus of elasticity. The advantages of this method are that it requires no gripping of these small specimens and that it is non-destructive and therefore permits repeated measurements to be performed (FIG. 1C). An aluminum alloy fixture with a 5.0 mm span between supports was glued to the bottom of a glass Petri dish. Specimens were tested in compression while immersed in liquid using a Vitrodyne testing machine (Model V-1000, Chatillon, Greensboro, N.C.) with a 50 grams load cell at crosshead speed of 0.5 mm/min. Load-displacement curves were converted to stress-strain curves and the apparent modulus of elasticity calculated at 3% strain. Displacement (D) during compression was calculated at a maximum strain of 3% using the following formula (Nielsen L E. Mechanical properties of polymers and composites. Vol. 1, New York: Marcel Dekker Inc., 1974, p. 45.):
Where ε is strain, L is support span and T is thickness of the specimen.
Then the modulus of elasticity (É) of the specimens was calculated using the following formula (Nielsen, 1974): […]
Where P is the maximum load, L is the support span, D is the displacement, b width of the specimen and T is the thickness of the specimen.
Baseline measurements were obtained with specimens immersed in distilled water. All experimental periods were evaluated with the samples immersed in their respective cross-linking agents. A total of 10-12 specimens were evaluated per group. The data were collected and statistically analyzed using a General Linear Model SPSS program for ANOVA repeated measurements at a 95% confidence interval.

[3] = UTS of demineralized dentin after collagenase challenge (Example 7); details: for UTS, individual specimens / UTS, mean: 1 h 25% GD or 6.5% GSE
Procedure: The data shown below in Tables 7 to 14 and in FIG. 8 describes the effect of grape seed extract and Glutaraldehyde on the tensile strength of demineralized dentin after collagenase challenge. Samples were treated and then subjected to collagenase digestion.

[4] = 24 hrs ammonium bicarbonate buffer, no collagenase
[5] = 24 hrs collagenase 100 ug/ml + ammonium bicarbonate buffer

## O=CCCCC=O [GD, glutaraldehyde]
[1]; 4 hours in 0.5% PA
  Ultimate tensile strength, mean: 94.5 MPa
[1]; 40 hours in 0.5% PA
  Ultimate tensile strength, mean: 110.4 MPa
[1]; pooled over 4 and 40 hours, 0.5% PA
  Ultimate tensile strength, pooled data: 102.5 A MPa
[2]; 2.5% GD group, Baseline (in distilled water, before exposure)
  modulus of elasticity: 4.82 MPa
[2]; 2.5% GD in PBS pH 7.4, 10 min cumulative exposure
  modulus of elasticity: 20.45 MPa
[2]; 2.5% GD in PBS pH 7.4, 30 min cumulative exposure
  modulus of elasticity: 30.22 MPa
[2]; 2.5% GD in PBS pH 7.4, 1 h cumulative exposure
  modulus of elasticity: 32.10 MPa
[2]; 2.5% GD in PBS pH 7.4, 2 h cumulative exposure
  modulus of elasticity: 34.44 MPa
[2]; 2.5% GD in PBS pH 7.4, 4 h cumulative exposure
  modulus of elasticity: 34.86 MPa
[2]; 2.5% GD
  modulus of elasticity, pooled data: 26.15 A MPa
[2]; 5% GD group, Baseline (in distilled water, before exposure)
  modulus of elasticity: 5.97 MPa
[2]; 5% GD in PBS pH 7.4, 10 min cumulative exposure
  modulus of elasticity: 18.37 MPa
[2]; 5% GD in PBS pH 7.4, 30 min cumulative exposure
  modulus of elasticity: 27.25 MPa
[2]; 5% GD in PBS pH 7.4, 1 h cumulative exposure
  modulus of elasticity: 29.77 MPa
[2]; 5% GD in PBS pH 7.4, 2 h cumulative exposure
  modulus of elasticity: 33.08 MPa
[2]; 5% GD in PBS pH 7.4, 4 h cumulative exposure
  modulus of elasticity: 38.14 MPa
[2]; 5% GD
  modulus of elasticity, pooled data: 25.43 A MPa
[2]; 25% GD group, Baseline (in distilled water, before exposure)
  modulus of elasticity: 5.32 MPa
[2]; 25% GD in PBS pH 7.4, 10 min cumulative exposure
  modulus of elasticity: 32.26 MPa
[2]; 25% GD in PBS pH 7.4, 30 min cumulative exposure
  modulus of elasticity: 37.83 MPa
[2]; 25% GD in PBS pH 7.4, 1 h cumulative exposure
  modulus of elasticity: 41.31 MPa
[2]; 25% GD in PBS pH 7.4, 2 h cumulative exposure
  modulus of elasticity: 41.21 MPa
[2]; 25% GD in PBS pH 7.4, 4 h cumulative exposure
  modulus of elasticity: 42.80 MPa
[2]; 25% GD
  modulus of elasticity, pooled data: 33.45 B MPa
[3]; [4]
  UTS, individual specimens: 16.93 Mpa and 5.28 Mpa and 9.86 Mpa and 9.57 Mpa and 7.56 Mpa and 8.24 Mpa and 8.76 Mpa and 5.66 Mpa and 7.99 Mpa and 11.97 Mpa and 8.93 Mpa and 7.60 Mpa and 8.38 Mpa
  UTS, mean: 8.98 Mpa and 8.99 Mpa
[3]; [5]
  UTS, individual specimens: 10.31 Mpa and 16.54 Mpa and 8.71 Mpa and 8.46 Mpa and 5.59 Mpa and 8.18 Mpa and 9.27 Mpa and 12.33 Mpa and 17.30 Mpa and 7.74 Mpa and 9.75 Mpa and 6.29 Mpa and 16.53 Mpa
  UTS, mean: 10.54 Mpa
[3]; strength values versus baseline (no collagenase treatment), control groups fully digested
  effect of collagenase digestion on treated demineralized dentin: not affected by the collagenase treatment
